From ChEMBL document CHEMBL4811216, “Chemotherapy for human schistosomiasis: how far have we come? What's new? Where do we go from here?” (RSC Med Chem, 2020)

Experiments:
Schistosoma mansoni [1] = assay: Antischistosomal activity against female Schistosoma mansoni Egyptian strain infected in BALB/c mouse assessed as reduction in worm burden at 200 mg/kg, po measured after 2 weeks; type: functional; parameters: scale not given: the % may be the effect or the level left
Schistosoma mansoni [2] = assay: Antischistosomal activity against Schistosoma mansoni LE infected in BALB/c mouse assessed as reduction in worm burden at 10 mg/kg, ip administered for 5 consecutive days starting from day 23 by microscopic method relative to control; type: functional; parameters: scale not given: the % may be the effect or the level left
Schistosoma mansoni [3] = assay: Antischistosomal activity against Schistosoma mansoni LE infected in BALB/c mouse assessed as reduction in worm burden at 10 mg/kg, ip administered for 5 consecutive days starting from day 1 post infection by microscopic method relative to control; type: functional; parameters: scale not given: the % may be the effect or the level left
Schistosoma mansoni [4] = assay: Antischistosomal activity against female Schistosoma mansoni Egyptian strain infected in BALB/c mouse assessed as reduction in male worm burden at 300 mg/kg, po measured after 2 weeks by scanning electron microscopy relative to control; type: functional; parameters: scale not given: the % may be the effect or the level left
Schistosoma mansoni [5] = assay: Antischistosomal activity against female Schistosoma mansoni Egyptian strain infected in BALB/c mouse assessed as reduction in total worm burden at 300 mg/kg, po measured after 2 weeks by scanning electron microscopy relative to control; type: functional; parameters: scale not given: the % may be the effect or the level left
Schistosoma mansoni [6] = assay: Antischistosomal activity against female Schistosoma mansoni Egyptian strain infected in BALB/c mouse assessed as reduction in total worm burden at 200 mg/kg, po measured after 2 weeks by scanning electron microscopy; type: functional; parameters: scale not given: the % may be the effect or the level left
Schistosoma mansoni [7] = assay: Antischistosomal activity against female Schistosoma mansoni Egyptian strain infected in BALB/c mouse assessed as reduction in female worm burden at 300 mg/kg, po measured after 2 weeks by scanning electron microscopy relative to control; type: functional; parameters: scale not given: the % may be the effect or the level left
Schistosoma mansoni [8] = assay: Antischistosomal activity against adult Schistosoma mansoni LE assessed as worm mortality at 100 ug/ml measured after 96 hrs by inverted microscopic method relative to control; type: functional
Schistosoma mansoni [9] = assay: Antischistosomal activity against adult Schistosoma mansoni LE assessed as worm mortality measured after 96 hrs by inverted microscopic method; type: functional, organism-based
Schistosoma mansoni [10] = assay: Antischistosomal activity against Schistosoma mansoni LE infected in BALb/C mouse assessed as reduction in worm burden at 400 mg/kg, po administered as single dose and measured after 15 days relative to control; type: functional; parameters: scale not given: the % may be the effect or the level left; settings: time 15 day
Schistosoma mansoni [11] = assay: Antischistosomal activity against Schistosoma mansoni LE larva at […] measured within 48 hrs by inverted microscopic method relative to control; type: functional; settings: dose 2.5 µg/ml
Schistosoma mansoni [12] = assay: Antischistosomal activity against Schistosoma mansoni BH infected in Swiss Webster mouse assessed as worm burden reduction at 100 mg/kg, po administered for 5 consecutive days and measured 15 days post-treatment (reference value: 19.8%); type: functional; parameters: scale not given: the % may be the effect or the level left; settings: time 15 day
Schistosoma mansoni [13] = assay: Antischistosomal activity against Schistosoma mansoni at 50 uM measured after 120 hrs relative to control; type: functional
Schistosoma mansoni [14] = assay: Antischistosomal activity against adult Schistosoma mansoni LE assessed as seperation of male and female worms at 10 uM measured after 24 hrs by inverted microscopy relative to control; type: functional
Schistosoma mansoni [15] = assay: Antischistosomal activity against adult Schistosoma mansoni LE assessed as reduction in motor activity at 50 uM measured after 24 hrs by inverted microscopy relative to control; type: functional; parameters: scale not given: the % may be the effect or the level left
Schistosoma mansoni [16] = assay: Antischistosomal activity against adult Schistosoma mansoni LE assessed as reduction in motor activity at 10 uM measured after 24 hrs by inverted microscopy relative to control; type: functional; parameters: scale not given: the % may be the effect or the level left
Schistosoma mansoni [17] = assay: schistosomicidal-activity against Schistosoma mansoni infected in NIH-Swiss mouse assessed as reduction in liver-staged worm burden at 10 mg/kg, ip administered daily for 5 consecutive days relative to control; type: functional; parameters: scale not given: the % may be the effect or the level left
Schistosoma mansoni [18] = assay: schistosomicidal-activity against adult Schistosoma mansoni infected in NIH-Swiss mouse assessed as reduction in worm burden at 10 mg/kg, ip administered daily for 5 consecutive days relative to control; type: functional; parameters: scale not given: the % may be the effect or the level left; settings: time 5 day
Schistosoma mansoni [19] = assay: Schistosomicidal-activity against Schistosoma mansoni infected in NIH-Swiss mouse assessed as reduction in skin staged worm burden at 10 mg/kg, ip administered daily for 5 consecutive days relative to control; type: functional; parameters: scale not given: the % may be the effect or the level left
Schistosoma mansoni [20] = assay: Antischistosomal activity against Schistosoma mansoni infected in NMRI mouse assessed as reduction in total worm burden at 400 mg/kg, po measured after 21 days relative to control; type: functional; parameters: scale not given: the % may be the effect or the level left; settings: time 21 day
Schistosoma mansoni [21] = assay: Antischistosomal activity against adult Schistosoma mansoni measured up to 72 hrs by microscopic method; type: functional, organism-based
Schistosoma mansoni [22] = assay: Antischistosomal activity against adult Schistosoma mansoni assessed as worm mortality at 10 uM measured up to 72 hrs by microscopic method relative to control; type: functional; settings: time hrs <=72
Schistosoma mansoni [23] = assay: Antischistosomal activity against Schistosoma mansoni infected in NMRI mouse assessed as reduction in female worm burden at 400 mg/kg, po measured after 21 days relative to control; type: functional; parameters: scale not given: the % may be the effect or the level left; settings: time 21 day
Schistosoma mansoni [24] = assay: Antischistosomal activity against Schistosoma mansoni NTS assessed as worm mortality at 10 uM measured up to 72 hrs by microscopic method relative to control; type: functional; settings: time hrs <=72
Schistosoma mansoni [25] = assay: Antischistosomal activity against Schistosoma mansoni BH infected in Balb/c mouse assessed as reduction in worm burden at 400 mg/kg, po measurement after 2 weeks; type: functional; parameters: scale not given: the % may be the effect or the level left
ATP-diphosphohydrolase 1 = target: T1, ATP-diphosphohydrolase 1 (Schistosoma mansoni, UniProt Q7YTA4); assay: Inhibition of Schistosoma mansoni ATPDase1 incubated for 30 mins
T1 sequence (Q7YTA4 whole entry): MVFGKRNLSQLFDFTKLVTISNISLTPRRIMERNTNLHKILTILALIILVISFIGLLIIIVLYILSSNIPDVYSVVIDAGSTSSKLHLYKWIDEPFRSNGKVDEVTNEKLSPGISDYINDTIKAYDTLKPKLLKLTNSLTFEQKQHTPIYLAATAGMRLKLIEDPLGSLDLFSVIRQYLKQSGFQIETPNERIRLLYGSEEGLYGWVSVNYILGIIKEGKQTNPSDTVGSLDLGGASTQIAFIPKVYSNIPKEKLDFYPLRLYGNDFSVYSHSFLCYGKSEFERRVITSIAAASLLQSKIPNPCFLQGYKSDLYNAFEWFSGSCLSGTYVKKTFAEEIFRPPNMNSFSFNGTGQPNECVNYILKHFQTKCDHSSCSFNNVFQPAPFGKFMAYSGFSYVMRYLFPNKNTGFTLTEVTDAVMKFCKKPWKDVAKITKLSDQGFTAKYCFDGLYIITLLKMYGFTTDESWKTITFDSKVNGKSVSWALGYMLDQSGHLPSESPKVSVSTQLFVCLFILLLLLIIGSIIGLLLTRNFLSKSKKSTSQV

Schistosoma mansoni [26] = assay: Antischistosomal activity against adult Schistosoma mansoni LE assessed as reduction in worm vitality measured every 24 hrs by inverted microscopy; type: functional, organism-based
Schistosoma mansoni [27] = assay: Antischistosomal activity against Schistosoma mansoni LE schistosomula assessed as reduction in worm vitality measured every 24 hrs by inverted microscopy; type: functional, organism-based
Schistosoma mansoni [28] = assay: Antischistosomal activity against adult Schistosoma mansoni LE assessed as worm mortality at 100 ug/ml incubated for 24 hrs by inverted microscopic method relative to control; type: functional
Schistosoma mansoni [29] = assay: Antischistosomal activity against Schistosoma mansoni at 50 uM measured after 96 hrs relative to control; type: functional
Schistosoma mansoni [30] = assay: Antischistosomal activity against adult Schistosoma mansoni Liberian at 10 uM measured after 48 hrs relative to control; type: functional
Schistosoma mansoni [31] = assay: Antischistosomal activity against adult Schistosoma mansoni Liberian at 10 uM measured after 24 hrs relative to control; type: functional
Schistosoma mansoni [32] = assay: microbe, parasite or virus in culture; settings: Liberian, 72 h
Description: Antischistosomal activity against Schistosoma mansoni Liberian NTS incubated for 72 hrs by microscopic method

Schistosoma mansoni [33] = assay: microbe, parasite or virus in culture; settings: 72 h
Description: Antischistosomal activity against Schistosoma mansoni incubated for 72 hrs by inverted microscopic method

Schistosoma haematobium = assay: Antischistosomal activity against Schistosoma haematobium at 10 uM measured after 72 hrs relative to control; type: functional
Schistosoma mansoni [34] = assay: Antischistosomal activity against Schistosoma mansoni Liberian NTS at 10 uM measured after 24 hrs relative to control; type: functional

Structure (SMILES): CC(C)Oc1ccc(-c2ccc(-c3nc4ccccc4[nH]3)s2)cc1
- Activity (Schistosoma mansoni [1]): 66%
- Activity (Schistosoma mansoni [2]): 55.3%
- Activity (Schistosoma mansoni [3]): 34.6%
- Activity (Schistosoma mansoni [4]): 34.6%
- Activity (Schistosoma mansoni [5]): 55.3%
- Activity (Schistosoma mansoni [6]): 44%
- Activity (Schistosoma mansoni [7]): 76.5%

Structure (SMILES): O=C1c2ccccc2C(=O)N1Nc1nc(-c2ccc(Cl)cc2Cl)cs1
- mortality at 100 µg/mL (Schistosoma mansoni [8]): 100%
- EC50 (Schistosoma mansoni [9]): 50.6 µM
- Activity (Schistosoma mansoni [10]): 85%
- mortality at […] (Schistosoma mansoni [11]): 100%

Structure (SMILES): CN(Nc1ccc(Cl)cc1)C1NC(=O)N(Cc2ccccc2)C1=S (configuration not stated)
- Activity (Schistosoma mansoni [12]): 70.5%
- Activity (Schistosoma mansoni [13]): 100%

Structure (SMILES): COc1cc(C[C@@H]2C(=O)OC[C@H]2Cc2cc(OC)c3c(c2)OCO3)cc(OC)c1OC
- Activity (Schistosoma mansoni [14]): >85%
- Activity (Schistosoma mansoni [15]): >75%
- Activity (Schistosoma mansoni [16]): 100%

Structure (SMILES): N#Cc1c(-c2ccccc2)no[n+]1[O-]
- Activity (Schistosoma mansoni [17]): 88%
- Activity (Schistosoma mansoni [18]): 94%
- Activity (Schistosoma mansoni [19]): 99%

Structure (SMILES): CCNCCNc1cc(-c2ccc(Cl)cc2)c(C#N)c2nc3ccccc3n12
- Activity (Schistosoma mansoni [20]): 58.7%
- IC50 (Schistosoma mansoni [21]): 2.44 µM
- mortality at 10 µM (Schistosoma mansoni [22]): > 60%
- Activity (Schistosoma mansoni [23]): 61.3%
- mortality at 10 µM (Schistosoma mansoni [24]): > 70%

Structure (SMILES): COc1ccc(/C=C/C(=O)c2ccccc2O)cc1
- Activity (Schistosoma mansoni [25]): 32.8%
- IC50 (ATP-diphosphohydrolase 1): 30.6 µM

Structure (SMILES): Cc1ccc(-c2cs/c(=N/N=C/CN3C(=O)c4ccccc4C3=O)[nH]2)cc1
- EC50 (Schistosoma mansoni [26]): 38.7 µM
- EC50 (Schistosoma mansoni [27]): 9.77 µM
- mortality at 100 µg/mL (Schistosoma mansoni [28]): 100%

Structure (SMILES): CN(c1ccc(F)cc1)N(C)C1NC(=O)N(Cc2ccc(Cl)cc2)C1=S (configuration not stated)
- Activity (Schistosoma mansoni [29]): 100%
- Activity (Schistosoma mansoni [13]): 100%

Structure (SMILES): CN1CCN(CCCOc2ncc(Nc3ncc(-c4ccc(C(F)(F)F)c(F)c4)nc3C(N)=O)cn2)CC1
- Activity (Schistosoma mansoni [30]): 100%
- Activity (Schistosoma mansoni [31]): 70%
- IC50 (Schistosoma mansoni [32]): 0.8 µM
- IC50 (Schistosoma mansoni [33]): 3 µM
- Activity (Schistosoma haematobium): 100%
- Activity (Schistosoma mansoni [34]): 100%
